In one experiment the target is T1, α5β3γ2 GABAA receptors (Ltk cell membranes) (Homo sapiens, UniProt P18507+P31644).
T1 construct: membranes
T1 sequence (P31644 32-462): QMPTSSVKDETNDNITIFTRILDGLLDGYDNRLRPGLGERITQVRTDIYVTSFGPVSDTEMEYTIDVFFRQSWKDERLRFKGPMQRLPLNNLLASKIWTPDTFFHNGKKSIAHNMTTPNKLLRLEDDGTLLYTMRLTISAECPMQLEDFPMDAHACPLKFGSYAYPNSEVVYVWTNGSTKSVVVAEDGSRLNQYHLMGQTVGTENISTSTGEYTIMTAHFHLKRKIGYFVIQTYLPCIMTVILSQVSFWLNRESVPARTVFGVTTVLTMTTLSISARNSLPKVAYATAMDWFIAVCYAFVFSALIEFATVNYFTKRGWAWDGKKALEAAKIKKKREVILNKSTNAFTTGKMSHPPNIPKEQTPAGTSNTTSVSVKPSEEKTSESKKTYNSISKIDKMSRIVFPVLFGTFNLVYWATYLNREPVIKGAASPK
T1 sequence (P28472 26-473 partner): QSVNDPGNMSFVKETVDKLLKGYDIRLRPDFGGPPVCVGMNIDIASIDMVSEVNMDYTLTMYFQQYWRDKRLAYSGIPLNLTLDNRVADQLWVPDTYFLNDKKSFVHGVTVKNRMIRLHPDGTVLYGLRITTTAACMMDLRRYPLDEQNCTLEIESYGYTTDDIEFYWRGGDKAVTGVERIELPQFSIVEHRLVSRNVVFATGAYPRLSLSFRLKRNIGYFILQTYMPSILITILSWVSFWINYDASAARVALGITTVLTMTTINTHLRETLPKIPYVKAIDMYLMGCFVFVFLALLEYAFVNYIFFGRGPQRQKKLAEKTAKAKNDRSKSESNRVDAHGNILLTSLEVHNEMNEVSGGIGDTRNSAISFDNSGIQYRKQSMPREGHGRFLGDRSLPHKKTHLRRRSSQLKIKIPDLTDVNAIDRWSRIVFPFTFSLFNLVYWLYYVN
T1 sequence (P18507 40-475): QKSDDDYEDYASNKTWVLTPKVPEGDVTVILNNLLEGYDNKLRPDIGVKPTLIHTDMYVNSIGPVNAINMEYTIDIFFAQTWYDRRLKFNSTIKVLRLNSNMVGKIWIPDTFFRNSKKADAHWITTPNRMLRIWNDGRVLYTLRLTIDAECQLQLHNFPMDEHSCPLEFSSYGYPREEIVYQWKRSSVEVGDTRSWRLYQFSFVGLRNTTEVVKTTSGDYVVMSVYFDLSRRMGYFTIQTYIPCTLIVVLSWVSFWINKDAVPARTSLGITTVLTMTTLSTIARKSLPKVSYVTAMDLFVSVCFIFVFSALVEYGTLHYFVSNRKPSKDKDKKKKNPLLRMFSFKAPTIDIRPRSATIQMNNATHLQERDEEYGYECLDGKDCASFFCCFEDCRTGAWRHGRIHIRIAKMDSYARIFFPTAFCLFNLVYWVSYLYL
Description: Binding activity of test compounds on GABAAR: inhibition of [3H]Ro15-1788 binding.
Details: not given
The procedure: Tissue culture and Membrane Preparation: The binding was performed on Ltk cells stably expressing GABAA receptors: α1β1γ2, α2β3γ2, α3β3γ2 and α5β3γ2 (provided by Merck Co., NJ, USA). Cells were seeded in 100 mm culture plates in DMEM/F12 medium containing 10% serum and antibiotics in 5% CO2 and allowed to grow for 1-2 days. GABAAR expression was then induced by dexamethasone as follows: 0.5 μM for 1 day for α5 containing and 2μM for 3 days for α1, α2 and α3 containing GABAARs. After induction, cells were collected by scraping into Dulbecco's Phosphate buffered saline (DPBS, pH 7.4, Invitrogen, Carlsbad, Calif., USA) and centrifuged at 150×g for 10 min. The pellet was washed twice by re-suspension and centrifugation. The cell pellets from at least 5 different preps were combined, suspended in the binding assay buffer (50 mM KH2P4; 1 mM EDTA; 0.2 M KCl, pH 7.4) and membranes prepared by sonication (3-5 times, 30 sec) using Branson Sonifier 150 (G.Heinmann, Germany). Protein content was determined using BCA assay (Bio-Rad Labs, Reinach, Switzerland) with Bovine Serum Albumin (Sigma Aldrich, St. Louis, Mo., USA) as the standard. Aliquots were prepared and stored at −20° C. for further use in binding assays.
Ligand Binding: Saturation binding curves were obtained by incubating membranes with increasing concentrations (0.01-8 nM) of [^3H]Ro15-1788 (Flumazepil, 75-85 Ci/mmol, PerkinElmer, MA, USA), with nonspecific binding measured in the presence of 10 μM diazepam.
All binding assays were performed for 1 h at 4° C. in assay buffer. The total assay volume was 0.5 ml containing 0.2 mg/ml protein for α5 and 0.4 mg/ml for α1, α2, and α3 containing GABAAR membranes. Incubations were terminated by filtration through GF/B filters using a 24-Cell Harvestor (Brandel, Gaithersburg, Md., USA) followed by 3 washes with ice-cold assay buffer. Filters were transferred to scintillation vials, 5 ml scintillation liquid added, vortex-mixed and kept in dark. Next day, radioactivity was obtained using a scintillation counter (Beckman Coulter, Brea, Calif., USA). All assays were performed in triplicate.
Data Analyses: Saturation and inhibition curves were obtained using GraphPad Prism software (GraphPad Software, Inc., CA, USA).
`COc1ccc2c(c1)-c1nnc(COc3ccccc3C(C)(C)C)n1Cc1c(C#N)ncn1-2` [Compound 192]: the inhibition constant Ki is greater than 1000 nM.
For the molecule `COc1ccc2c(c1)-c1nnc(COc3ccccc3C(F)(F)F)n1Cc1c(C#N)ncn1-2` [Compound 193], the inhibitory constant (Ki) was greater than 1000 nM.
On the same count and under the same terms, the figure for `Clc1ccc2c(c1)-c1nnc(COc3ccccc3)n1Cc1c(C3OCCO3)ncn1-2` [Compound 204] is greater than 1000 nM.

The experiment is the same for the next values; noted with them: GABA α5 Binding Ki Values, inhibition of [3H]Ro15-1788 binding; reported as ranges.
In turn, `Cc1cnc(-c2ncn3c2Cc2c(C)nnn2-c2cc(F)ccc2-3)nc1` [Compound 144] displayed a Ki of 100 to 1000 nM.
Molecule `Cc1nc(-c2ncn3c2Cc2c(C)nnn2-c2cc(F)ccc2-3)no1` [Compound 145] yielded a Ki of less than 100 nM.
With `Cc1cnc(-c2ncn3c2Cc2c(C)nnn2-c2ccccc2-3)nc1` [Compound 146], the Ki lay in the range of 100 to 1000 nM.
`CC(C)c1nc(-c2ncn3c2Cn2c(COc4ccccc4)nnc2-c2cc(F)ccc2-3)no1` [Compound 147] gave a Ki of less than 100 nM.
On the same count and under the same terms, the figure for `Cc1nc(-c2ncn3c2Cn2c(COc4ccccc4)nnc2-c2cc(F)ccc2-3)no1` [Compound 148] is less than 100 nM.
Still for that read-out and setting: the same measure for `Cc1nnn2c1Cc1c(-c3noc(C(C)C)n3)ncn1-c1ccc(F)cc1-2` [Compound 149]: less than 100 nM; for `Cc1nnn2c1Cc1c(-c3noc(C(F)(F)F)n3)ncn1-c1ccc(F)cc1-2` [Compound 150]: less than 100 nM.
Still for that read-out and setting: the same measure for `Cc1nnn2c1Cc1c(-c3ncon3)ncn1-c1ccc(F)cc1-2` [Compound 151]: less than 100 nM; for `Cc1nnn2c1Cc1c(-c3cnn(C)c3)ncn1-c1ccc(F)cc1-2` [Compound 152]: greater than 1000 nM; for `Cc1nnn2c1Cc1c(C(=O)OC(C)C)ncn1-c1ccccc1-2` [Compound 153]: less than 100 nM.
For the molecule `Cc1cc(-c2ncn3c2Cc2c(C)nnn2-c2cc(F)ccc2-3)ccn1` [Compound 154], the inhibition constant Ki is greater than 1000 nM.
Consider `CCc1nc(-c2ncn3c2Cc2c(C)nnn2-c2cc(F)ccc2-3)no1` [Compound 155], for which the Ki is less than 100 nM.
With `CC(C)OC(=O)c1ncn2c1Cn1c(COc3ccccc3)nnc1-c1cc(F)ccc1-2` [Compound 156], the Ki is less than 100 nM.
Still for that read-out and setting: the same measure for `N#Cc1ncn2c1Cn1c(COc3ccccc3)nnc1-c1cc(F)ccc1-2` [Compound 157]: less than 100 nM; for `CCc1nc(-c2ncn3c2Cn2c(COc4ccccc4)nnc2-c2cc(F)ccc2-3)no1` [Compound 158]: less than 100 nM; for `Fc1ccc2c(c1)-c1nnc(COc3ccccc3)n1Cc1c(-c3noc(C(F)(F)F)n3)ncn1-2` [Compound 159]: less than 100 nM.
The same measure, in the same setting: the same measure for `Cc1nnn2c1Cc1c(-c3noc(C(C)(C)C)n3)ncn1-c1ccc(F)cc1-2` [Compound 160]: less than 100 nM; for `C#Cc1ncn2c1Cc1c(C)nnn1-c1ccccc1-2` [Compound 161]: less than 100 nM; for `COc1ccc2c(c1)-c1nnc(COc3ccccc3)n1Cc1c(-c3noc(C)n3)ncn1-2` [Compound 162]: less than 100 nM.
Take `COc1ccc2c(c1)-c1nnc(COc3ccc(F)cc3)n1Cc1c(-c3noc(C)n3)ncn1-2` [Compound 163]: the Ki was less than 100 nM.
On the same count and under the same terms, the figure for `COCc1nnc2n1Cc1c(-c3noc(C)n3)ncn1-c1ccc(OC)cc1-2` [Compound 164] is less than 100 nM; for `COc1ccc2c(c1)-c1nnc(COCc3ccccc3)n1Cc1c(-c3noc(C)n3)ncn1-2` [Compound 165] it is less than 100 nM; for `COc1ccc2c(c1)-c1nnc(COCc3ccccc3)n1Cc1c(C#N)ncn1-2` [Compound 166] it is less than 100 nM.
Molecule `COc1ccc2c(c1)-n1nnc(C)c1Cc1c(-c3nc(C)no3)ncn1-2` [Compound 167] displayed a Ki of less than 100 nM.
Still for that read-out and setting: the figure for `COc1ccc2c(c1)-n1nnc(COc3cccc(F)c3)c1Cc1c(-c3noc(C)n3)ncn1-2` [Compound 168] is less than 100 nM; for `COCc1nnc2n1Cc1c(-c3noc(C(C)C)n3)ncn1-c1ccc(OC)cc1-2` [Compound 169] it is less than 100 nM; for `COc1ccc2c(c1)-n1nnc(CN3CCCC3)c1Cc1c(-c3nc(C(C)C)no3)ncn1-2` [Compound 170] it is 100 to 1000 nM.
`COc1ccc2c(c1)-c1nnc(COc3ccccc3)n1Cc1c(-c3noc(C(C)C)n3)ncn1-2` [Compound 171]: the inhibitory constant (Ki) was less than 100 nM.
Still for that read-out and setting: the figure for `COc1ccc2c(c1)-c1nnc(COc3ccc(F)cc3)n1Cc1c(-c3noc(C(C)C)n3)ncn1-2` [Compound 172] is less than 100 nM; for `CCOCc1nnc2n1Cc1c(-c3noc(C(C)C)n3)ncn1-c1ccc(OC)cc1-2` [Compound 173] it is less than 100 nM; for `COc1ccc2c(c1)-c1nnc(COc3ccccc3F)n1Cc1c(-c3noc(C(C)C)n3)ncn1-2` [Compound 174] it is less than 100 nM.
Same read-out and setting: the same measure for `COc1ccc2c(c1)-c1nnc(COc3ccccc3Cl)n1Cc1c(-c3noc(C(C)C)n3)ncn1-2` [Compound 175]: less than 100 nM; for `COc1ccc2c(c1)-c1nnc(COc3cccnc3)n1Cc1c(-c3noc(C(C)C)n3)ncn1-2` [Compound 176]: less than 100 nM.
On the same count and under the same terms, the figure for `COc1ccc2c(c1)-c1nnc(COc3cccc4ccccc34)n1Cc1c(-c3noc(C(C)C)n3)ncn1-2` [Compound 177] is less than 100 nM; for `COc1ccc2c(c1)-c1nnc(COC3CCCC3)n1Cc1c(-c3noc(C(C)C)n3)ncn1-2` [Compound 178] it is less than 100 nM; for `COc1ccc2c(c1)-c1nnc(COc3cccc(F)c3)n1Cc1c(-c3noc(C(C)C)n3)ncn1-2` [Compound 179] it is less than 100 nM.
`COc1ccc2c(c1)-n1nnc(COc3ccc(F)cc3)c1Cc1c(-c3noc(C)n3)ncn1-2` [Compound 180] displayed a Ki of less than 100 nM.
As for `COc1ccc2c(c1)-n1nnc(COc3ccccc3F)c1Cc1c(-c3noc(C)n3)ncn1-2` [Compound 181], the Ki was less than 100 nM.
In turn, `COc1ccc2c(c1)-n1nnc(COc3ccccc3)c1Cc1c(-c3noc(C)n3)ncn1-2` [Compound 182] registered a Ki of less than 100 nM.
In the case of `COc1ccc2c(c1)-c1nnc(COCc3cccc(F)c3)n1Cc1c(-c3noc(C(C)C)n3)ncn1-2` [Compound 183], the Ki was less than 100 nM.
With `COc1ccc2c(c1)-c1nnc(COCc3ccccc3F)n1Cc1c(-c3noc(C(C)C)n3)ncn1-2` [Compound 184], the Ki is less than 100 nM.
On to `CC(C)c1nc(-c2ncn3c2Cn2c(COc4cccnc4)nnc2-c2cc(F)ccc2-3)no1` [Compound 185], for which the Ki was less than 100 nM.
Consider `COCc1nnc2n1Cc1c(-c3noc(C(C)C)n3)ncn1-c1ccc(F)cc1-2` [Compound 186], for which the inhibition constant (Ki) was less than 100 nM.
On to `CCOCc1nnc2n1Cc1c(-c3noc(C(C)C)n3)ncn1-c1ccc(F)cc1-2` [Compound 187], for which the Ki was less than 100 nM.
Still for that read-out and setting: the figure for `CC(C)c1nc(-c2ncn3c2Cn2c(COc4cccc(F)c4)nnc2-c2cc(F)ccc2-3)no1` [Compound 188] is less than 100 nM; for `CC(C)c1nc(-c2ncn3c2Cn2c(COc4ccc(F)cc4)nnc2-c2cc(F)ccc2-3)no1` [Compound 189] it is less than 100 nM; for `Cc1cccc(C)c1OCc1nnc2n1Cc1c(-c3noc(C(C)C)n3)ncn1-c1ccc(F)cc1-2` [Compound 190] it is less than 100 nM.
On to `COc1ccc2c(c1)-c1nnc(COc3ccc(F)cc3)n1Cc1c(C#N)ncn1-2` [Compound 191], for which the inhibition constant (Ki) fell in the range of 100 to 1000 nM.
The molecule `CCc1nc(-c2ncn3c2Cc2c(Cc4ccccc4)nnn2-c2cc(OC)ccc2-3)no1` [Compound 194] had a Ki of less than 100 nM.
With `CCc1nc(-c2ncn3c2Cc2c(Cc4ccc(F)cc4)nnn2-c2cc(OC)ccc2-3)no1` [Compound 195], the Ki was less than 100 nM.
`COc1ccc2c(c1)-c1nnc(COc3cccc(F)c3)n1Cc1c(C#N)ncn1-2` [Compound 196] came in with an inhibition constant (Ki) of less than 100 nM.
On the same count and under the same terms, the figure for `N#Cc1ncn2c1Cn1c(COc3ccccc3)nnc1-c1cc(Cl)ccc1-2` [Compound 197] is less than 100 nM.
For `COCc1nnc2n1Cc1c(-c3nc(C)no3)ncn1-c1ccc(Cl)cc1-2` [Compound 198], the inhibition constant Ki is less than 100 nM.
In the case of `FC(F)=Cc1ncn2c1Cn1c(COc3ccccc3)nnc1-c1cc(Cl)ccc1-2` [Compound 199], the Ki was less than 100 nM.
Molecule `FC(F)c1ncn2c1Cn1c(COc3ccccc3)nnc1-c1cc(Cl)ccc1-2` [Compound 200] had an inhibition constant Ki of 100 to 1000 nM.
The same measure, in the same setting: the same measure for `COc1ccc2c(c1)-c1nnc(COC(C)(C)C)n1Cc1c(-c3noc(C(C)C)n3)ncn1-2` [Compound 201]: 100 to 1000 nM; for `Clc1ccc2c(c1)-c1nnc(COc3ccccc3)n1Cc1c(Br)ncn1-2` [Compound 202]: less than 100 nM.
For `COc1ccc2c(c1)-c1nnc(COCc3cccnc3)n1Cc1c(-c3noc(C(C)C)n3)ncn1-2` [Compound 203], the inhibition constant (Ki) is less than 100 nM.
